Reference: the supplement of paper PMC10307832

Legend:
Experiment in all cases: relative viability (nuclei count vs DMSO), 5 days (fraction); higher = more cells survive
[1] = compound: C=CCn1c(=O)c2cnc(Nc3ccc(N4CCN(C)CC4)cc3)nc2n1-c1cccc(C(C)(C)O)n1 [Adavosertib] + CS(=O)(=O)CCNCc1ccc(-c2ccc3ncnc(Nc4ccc(OCc5cccc(F)c5)c(Cl)c4)c3c2)o1 [Lapatinib] (partner 2 µM)
Outline: (§1)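 Dosing by pin tool came one day after lung cancer cell lines were seeded in 1536-well plates, using either one drug or a fixed anchor-drug dose plus five library-drug doses (not always all listed) in √10 steps. After 5 days, nuclei were counted on 4× images. Relative viability is treated-well nuclei count divided by vehicle-well nuclei count, and values are medians of duplicate plates.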

[2] = compound: COc1nc(N)nc2c1ncn2[C@@H]1O[C@H](CO)[C@@H](O)[C@@H]1O [Nelarabine] + Cc1nc(NC(=O)N2CCC[C@H]2C(N)=O)sc1-c1ccnc(C(C)(C)C(F)(F)F)c1 [Alpelisib] (partner 2 µM)
Outline: as §1

[3] = compound: COc1nc(N)nc2c1ncn2[C@@H]1O[C@H](CO)[C@@H](O)[C@@H]1O [Nelarabine] + O=C(c1cc(Cc2n[nH]c(=O)c3ccccc23)ccc1F)N1CCN(C(=O)C2CC2)CC1 [Olaparib] (partner 8 µM)
Outline: as §1

[4] = compound: COc1nc(N)nc2c1ncn2[C@@H]1O[C@H](CO)[C@@H](O)[C@@H]1O [Nelarabine] + Cc1cc(Nc2cc(N3CCN(C)CC3)nc(Sc3ccc(NC(=O)C4CC4)cc3)n2)n[nH]1 [Tozasertib] (partner 0.1 µM)
Outline: as §1

Cell Line	relative viability ([1]; first compound 0.01 µM)	relative viability ([1]; first compound 0.03162 µM)	relative viability ([1]; first compound 0.1 µM)	relative viability ([1]; first compound 0.3162 µM)	relative viability ([2]; first compound 0.01 µM)	relative viability ([2]; first compound 0.1 µM)	relative viability ([2]; first compound 0.3162 µM)	relative viability ([2]; first compound 1 µM)	relative viability ([3]; first compound 0.01 µM)	relative viability ([3]; first compound 0.03162 µM)	relative viability ([3]; first compound 0.1 µM)	relative viability ([3]; first compound 0.3162 µM)	relative viability ([3]; first compound 1 µM)	relative viability ([4]; first compound 0.01 µM)	relative viability ([4]; first compound 0.03162 µM)	relative viability ([4]; first compound 0.1 µM)	relative viability ([4]; first compound 0.3162 µM)	relative viability ([4]; first compound 1 µM)	relative viability ([2]; first compound 0.03162 µM)
NCI-H1792	0.824	0.931	0.919	0.937	0.908	0.83	0.688	0.828	0.52	0.42	0.581	0.566	0.436						
NCI-H358	0.355	0.429	0.46	0.431	0.906	0.62	0.845	0.857	0.616	0.406	0.587	0.637	0.627	0.0868	0.0783	0.096	0.105	0.0898	0.839
NCI-H2347	0.889	0.912	1.13	1.03	1.01	1.14	1.04	1.14	0.658	0.417	0.527	0.574	0.52	0.659	0.443	0.523	0.565	0.225	1.13
NCI-H1793	0.61	0.714	0.721	0.647	0.748	0.625	0.68	0.693	1.36		0.891	1.29	1.05	0.316	0.317	0.328	0.327	0.352	0.736
LU99A	1.02	0.96	0.956	0.639	0.517	0.519	0.476	0.54	0.276	0.239	0.252	0.249	0.26	0.287	0.253	0.239	0.264	0.279	0.415
NCI-H661	0.542	0.601	0.514	0.363	0.497	0.701	0.772	0.455	0.876	0.709	0.762	0.748	0.796	0.343	0.334	0.333	0.344	0.364	0.834
SW 900									0.843	0.752	0.96	0.949	0.797	0.617	0.476	0.635	0.611	0.532	
EBC-1	0.198	0.206	0.25	0.21	0.86	0.941	0.87	0.951	0.89	0.911	0.707	0.676	0.737						0.829
NCI-H2342									0.442	0.432	0.443	0.395	0.442	0.532	0.513	0.446	0.478	0.462	
NCI-H1648										0.927		0.889	0.714	0.456	0.405	0.43	0.601	0.383	
ChaGo-K-1									0.324	0.404	0.452	0.433	0.428	0.237	0.205	0.193	0.232	0.231	
NCI-H1563	1.02	1.02	0.969	0.932	0.956	0.886	1	0.919											0.858
NCI-H1650	0.75	0.884	0.747	0.379					0.922	0.81	1	0.883	0.946	0.393	0.307	0.331	0.458	0.378	
NCI-H1623														0.46	0.341	0.601	0.45	0.406	
NCI-H441					0.974	0.704	0.921	0.986	0.5	0.518	0.561	0.677	0.697	0.691	0.704	0.58	0.61	0.697	0.675
A549	0.908	1.01	1.06	0.743	0.885	0.783	0.818	0.858	0.379	0.363	0.401	0.452	0.377						0.879
NCI-H522									0.619	0.738	0.651	0.592	0.639	0.529	0.605	0.456	0.615	0.627	
NCI-H1703	1.19	1.1	0.93	0.257	0.395	0.385	0.366	0.409	0.547	0.293	0.295	0.557	0.524						0.278
NCI-H1299	0.954	0.968	0.977	0.431	1.16	1.04	1.08	1.2	1	0.999	0.989	1.02	1.03						1.11
